“And” between values parts separate entries of the source, which are not always exact repeats. Equal values may be shown once.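 Exposure lasted 48 hours, with cells grown in 96-well plates and compounds tested at five concentrations. The concentration for 50% growth inhibition is given as GI50. TGI: total growth inhibition.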
Experiments:
Test in all cases: growth of human tumour cells (NCI), 48 h
[1] = tested on: 786-0 renal
[2] = tested on: A498 renal
[3] = tested on: A549 NSCLC
[4] = tested on: ACHN renal
[5] = tested on: BT-549 breast
[6] = tested on: CAKI-1 renal
[7] = tested on: CCRF-CEM leukemia
[8] = tested on: COLO 205 colon
[9] = tested on: DU-145 prostate
[10] = tested on: EKVX NSCLC
[11] = tested on: HCC-2998 colon
[12] = tested on: HCT-116 colon
[13] = tested on: HCT-15 colon
[14] = tested on: HL-60(TB) leukemia
[15] = tested on: HOP-62 NSCLC
[16] = tested on: HOP-92 NSCLC
[17] = tested on: HS 578T breast
[18] = tested on: HT29 colon
[19] = tested on: IGROV1 ovarian
[20] = tested on: K-562 leukemia
[21] = tested on: KM12 colon
[22] = tested on: LOX IMVI melanoma
[23] = tested on: M14 melanoma
[24] = tested on: MALME-3M melanoma
[25] = tested on: MCF7 breast
[26] = tested on: MDA-MB-231 breast
[27] = tested on: MDA-MB-435
[28] = tested on: MDA-N
[29] = tested on: MOLT-4 leukemia
[30] = tested on: NCI-H226 lung
[31] = tested on: NCI-H23 lung
[32] = tested on: NCI-H522 lung
[33] = tested on: NCI/ADR-RES ovarian
[34] = tested on: OVCAR-3 ovarian
[35] = tested on: OVCAR-4 ovarian
[36] = tested on: OVCAR-5 ovarian
[37] = tested on: OVCAR-8 ovarian
[38] = tested on: PC-3 prostate
[39] = tested on: RPMI-8226 leukemia
[40] = tested on: RXF 393 renal
[41] = tested on: SF-268 CNS
[42] = tested on: SF-295 CNS
[43] = tested on: SF-539 CNS
[44] = tested on: SK-MEL-2 melanoma
[45] = tested on: SK-MEL-28 melanoma
[46] = tested on: SK-MEL-5 melanoma
[47] = tested on: SK-OV-3 ovarian
[48] = tested on: SN12C renal
[49] = tested on: SNB-19 CNS
[50] = tested on: SNB-75 CNS
[51] = tested on: SR leukemia
[52] = tested on: SW-620 colon
[53] = tested on: T-47D breast
[54] = tested on: TK-10 renal
[55] = tested on: U251 CNS
[56] = tested on: UACC-257 melanoma
[57] = tested on: UACC-62 melanoma
[58] = tested on: UO-31 renal

Compound: Cc1nc2c(Br)cc(Br)cc2c(=O)n1-c1ccccc1NC1OCC(O)C(O)C1O (stereo unspecified)
- GI50 [1]: 45.1 µM and 13.6 µM
- TGI [1]: > 100 µM and 32.6 µM
- GI50 [2]: 87.2 µM and 18.3 µM
- TGI [2]: > 100 µM and 45.6 µM
- GI50 [3]: 34.8 µM and 10.1 µM
- TGI [3]: > 100 µM and 34.6 µM
- TGI [4]: > 100 µM and 51.8 µM
- TGI [5]: > 100 µM
- TGI [6]: > 100 µM
- TGI [7]: 56.7 µM and > 56.5 µM
- TGI [8]: 34.2 µM and > 100 µM
- GI50 [9]: 44.9 µM and 19.2 µM
- TGI [9]: > 100 µM and 46.3 µM
- TGI [10]: > 100 µM
- TGI [11]: > 100 µM
- TGI [12]: 65.7 µM and 40.2 µM
- TGI [13]: > 100 µM
- GI50 [14]: 18.6 µM and 7.03 µM
- TGI [14]: 43.4 µM and 15.7 µM
- GI50 [15]: > 100 µM and 10.3 µM
- TGI [15]: > 100 µM and 35.7 µM
- TGI [16]: 82.1 µM and > 100 µM
- TGI [17]: > 100 µM
- TGI [18]: 66.2 µM and 53.5 µM
- TGI [19]: > 100 µM
- GI50 [20]: 15.1 µM and > 32.7 µM
- TGI [20]: 46.6 µM and > 81.2 µM
- TGI [21]: 67 µM
- TGI [22]: 97.7 µM and > 51.3 µM
- TGI [23]: 46.7 µM and > 100 µM
- TGI [24]: > 100 µM
- GI50 [25]: 28.4 µM and 3.7 µM
- TGI [25]: > 100 µM
- TGI [26]: > 100 µM
- TGI [27]: > 100 µM
- TGI [28]: > 100 µM
- GI50 [29]: 19.5 µM and 3.5 µM
- TGI [29]: 61.1 µM and > 36.1 µM
- GI50 [30]: 42.3 µM and 16.2 µM
- TGI [30]: > 100 µM and 48.9 µM
- TGI [31]: > 100 µM
- TGI [32]: 92.4 µM and 47.1 µM
- GI50 [33]: 43.3 µM and > 100 µM
- TGI [33]: > 100 µM
- TGI [34]: 69.3 µM and 60.9 µM
- TGI [35]: > 100 µM
- TGI [36]: > 100 µM
- GI50 [37]: 30.6 µM and 14.5 µM
- TGI [37]: > 100 µM and 50.7 µM
- TGI [38]: > 100 µM
- GI50 [39]: 28.5 µM and 9.26 µM
- TGI [39]: > 100 µM and 41.7 µM
- GI50 [40]: 33.2 µM and 12.5 µM
- TGI [40]: > 100 µM and 49.2 µM
- GI50 [41]: 45.1 µM and 5.56 µM
- TGI [41]: > 100 µM and 34 µM
- GI50 [42]: 43.1 µM and 14 µM
- TGI [42]: > 100 µM and 65.3 µM
- GI50 [43]: 48.4 µM and 7.53 µM
- TGI [43]: > 100 µM and 22.3 µM
- TGI [44]: > 100 µM
- TGI [45]: > 100 µM
- GI50 [46]: 36.9 µM and 13.4 µM
- TGI [46]: > 100 µM and 31.3 µM
- GI50 [47]: 76.3 µM and 29.9 µM
- TGI [47]: > 100 µM
- GI50 [48]: 46.8 µM and 21.9 µM
- TGI [48]: > 100 µM
- TGI [49]: > 100 µM
- TGI [50]: > 100 µM and 53.2 µM
- GI50 [51]: 13.2 µM and 6 µM
- TGI [51]: 41 µM and 13.6 µM
- TGI [52]: > 100 µM
- TGI [53]: > 100 µM
- TGI [54]: > 100 µM
- GI50 [55]: 38.3 µM and 16.1 µM
- TGI [55]: > 100 µM
- TGI [56]: > 100 µM and 99.3 µM
- GI50 [57]: 31.7 µM and 15.7 µM
- TGI [57]: > 100 µM and 36.7 µM
- TGI [58]: > 100 µM

Source: PubChem BioAssay (NCI)
